From patent US20200191798A1, “DOSE DETERMINATION FOR IMMUNOTHERAPEUTIC AGENTS” (BIONTECH RNA PHARMACEUTICALS GMBH, priority 2016, published 2020)

Tested on: cytokines in the blood
Assay: Plasma cytokines after intravenous infusion of TLR-7 agonists in cynomolgus monkeys
Format: in vivo, cynomolgus monkey
Conditions: thirty minute i.v. infusion
Text: The objective of the following study was to observe the effect of the in vivo administration of different amounts of small molecule agonists of TLR-7, N-(4-(4-amino-2-(2-methoxyethyl)-1H-imidazo[4,5-c]quinolin-1-yl)butyl)-N-(tetrahydro-2H-pyran-4-yl)acetamide (SM1) and N-(4-(4-amino-2-ethyl-1H-imidazo[4,5-c]quinolin-1-yl)butyl)-N-(1,1-dioxidothietan-3-yl)acetamide (SM3), on expression of various cytokines in the blood in a cynomolgus monkey model. The various cytokines whose expression was determined include interferon alpha, interleukin 1 receptor antagonist, interleukins 4, 6, 8, 10, 12, 15, 18, monocyte chemoattractant protein 1, granulocyte-colony stimulating factor, macrophage inflammatory protein 1 beta, tumor necrosis factor alpha, and vascular endothelial growth factor.
A defined single dose of one of the agonist compounds was administered intravenously to cynomolgus monkeys in a thirty minute infusion. […]
Cytokines levels were determined using an interferon alpha Elisa kit (e.g., VeriKine™ Cynomolgus/Rhesus IFNα ELISA Kit) and a Luminex® non-human primate cytokine/chemokine kit (e.g., Milliplex Non-Human Primate Cytokine/Chemokine Magnetic Premixed 23 Plex Panel), in accordance to the manufacturers' instructions. […]

Compound | cytokine levels in plasma (FIGS. 10a-10kk) (male and female cynomolgus monkeys, 30, 100 or 300 μg/kg, then at 14 days 1, 3 or 10 mg/kg) | cytokine levels in plasma (FIGS. 11a-11m) (male cynomolgus monkeys, 300 μg/kg, 1, 3 and 10 mg/kg)
COCCc1nc2c(N)nc3ccccc3c2n1CCCCN(C(C)=O)C1CCOCC1 [SM1, N-(4-(4-amino-2-(2-methoxyethyl)-1H-imidazo[4,5-c]quinolin-1-yl)butyl)-N-(tetrahydro-2H-pyran-4-yl)acetamide] | production of various cytokines in a highly individual manner | 
CCc1nc2c(N)nc3ccccc3c2n1CCCCN(C(C)=O)C1CS(=O)(=O)C1 [SM3, N-(4-(4-amino-2-ethyl-1H-imidazo[4,5-c]quinolin-1-yl)butyl)-N-(1,1-dioxidothietan-3-yl)acetamide] |  | production of various cytokines in a highly individual manner
